Reference: ChEMBL document CHEMBL1128493, “Synthesis and sigma binding properties of 2'-substituted 5,9 alpha-dimethyl-6,7-benzomorphans” (J Med Chem, 1995)

Key:
[1] = Binding affinity at Sigma receptor type 2 on rat liver membranes receptor by [3H]DTG displacement.
[2] = Binding affinity measured on Sigma receptor type 1 from guinea pig brain membranes using [3H]pentazocine as radioligand.

Question: Which Ki [1] does the source give for CC1C2Cc3ccc(O)cc3C1(C)CCN2Cc1ccccc1 (single isomer, unassigned; (+)) here?
Answer: 1710 nM

Question: What about the Ki [2] of the same molecule?
Answer: 0.67 nM
